Converted amounts (≈) assume the structure as drawn.
Key:
[1] = cited from earlier work
[2] = Natamycin solubility of the RFC composition in water by UV spectrophotometer at 332.6 nm; format: physicochemical; details: 25° C.
Procedure: The RFC compositions were prepared by mixing commercial natamycin (87%) withβ-CD(98%) in different molar ratios. A comparison on the solubility of natamycin was made for the RFC compositions. The solubility of natamycin in water is determined by UV Spectrophotometer at 332.6 nm.

[3] = test system: Aspergillus niger (CRCC 30506); assay: Antimycotic activity (MIC) on MRS agar plates inoculated with Aspergillus niger spores; format: cell-based; details: 168 h, 7 days at 24° C.
Procedure: The freshly prepared spore suspension (c.a. 10^6/ml)of Aspergillus niger (CRCC 30506) was inoculated on MRS agar plates containing different concentrations of natamycin. The diameter of the colonies of Aspergillus niger was measured after being incubated for 7days at 24° C. […] The results of Table 2 also indicate that the RFC mixture show higher antimycotic activity than conventional natamycin because of the improved solubility.

Row | SMILES | solubility in water [1] | Solubility of natamycin [2] | MIC [3]
1 | C[C@@H]1C/C=C/C=C/C=C/C=C/[C@H](O[C@@H]2O[C@H](C)[C@@H](O)[C@H](N)[C@@H]2O)C[C@@H]2O[C@](O)(C[C@@H](O)C[C@H]3O[C@@H]3/C=C/C(=O)O1)C[C@H](O)[C@H]2C(=O)O [natamycin] | 0.005-0.010 weight/weigh | 45 ppm | 
2 | C[C@@H]1C/C=C/C=C/C=C/C=C/[C@H](O[C@@H]2O[C@H](C)[C@@H](O)[C@H](N)[C@@H]2O)C[C@@H]2O[C@](O)(C[C@@H](O)C[C@H]3O[C@@H]3/C=C/C(=O)O1)C[C@H](O)[C@H]2C(=O)O [Commercial natamycin (50%), natamycin] |  |  | 1.25 to 1.5 µg/mL (≈ 1.88 to 2.25 µM)

— patent US20060116335A1, “Ready-for-complexation composition” (Lytone Enterprise, Inc., priority 2004, published 2006)
